System: FLAP (5-lipoxygenase activating protein)
Test: In vitro binding test: displacement of [3H]-7-chloro-3-(5-((3-fluoropyridin-2-yl)methoxy)-2-methylphenyl)-3,4-dihydroquinazolin-2(1H)-one from Sf9 microsome fractions
Set-up: species or system human and mouse
Conditions: Sf9 microsome fractions expressing FLAP; 100% = radioligand binding with 10 μM sodium 3-(3-(tert-butylsulfanyl)-1-(4-chlorobenzyl)-5-isopropyl-1H-indol-2-yl)-2,2-dimethylpropanoate, 0% = DMSO; test compound concentration not given
Method in brief: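 Sf9 microsomes expressing human or mouse FLAP (2 μg/mL) preincubated with compound 10 min at room temperature, then 120 nM tritiated quinazolinone ligand added for 60 min; buffer 100 mM Tris-HCl pH 7.5 with NaCl, EDTA, DTT, glycerol, Tween20. Bound ligand filtered and counted by scintillation; 10 μM indole propanoate defines 100% inhibition, DMSO 0%.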

Structure (SMILES)	inhibitory rate (%)
COC(=O)c1ccc2c(=O)n(-c3cc(OCc4c(F)cccc4F)ccc3C)c(=O)[nH]c2c1 [Example 335, methyl 3-(5-((2,6-difluorobenzyl)oxy)-2-methylphenyl)-2,4-dioxo-1,2,3,4-tetrahydroquinazoline-7-carboxylate]	103%
Cc1ccc(OCc2c(F)cccc2F)cc1-n1c(=O)[nH]c2cc(C(C)(C)O)ccc2c1=O [Example 336, 3-(5-((2,6-difluorobenzyl)oxy)-2-methylphenyl)-7-(2-hydroxypropan-2-yl)quinazoline-2,4(1H,3H)-dione]	108%
Cc1ccc(OCc2ncccc2F)cc1-n1c(=O)[nH]c2ccccc2c1=O [Example 337, 3-(5-((3-fluoropyridin-2-yl)methoxy)-2-methylphenyl)quinazoline-2,4(1H,3H)-dione]	104%
Cc1ccc(OCc2ncccc2F)cc1-n1c(=O)[nH]c2cccnc2c1=O [Example 338, 3-(5-((3-fluoropyridin-2-yl)methoxy)-2-methylphenyl)pyrido[3,2-d]pyrimidine-2,4(1H,3H)-dione]	90%
Cc1ccc(OCc2ncccc2F)cc1-n1c(=O)[nH]c2cnccc2c1=O [Example 339, 3-(5-((3-fluoropyridin-2-yl)methoxy)-2-methylphenyl)pyrido[3,4-d]pyrimidine-2,4(1H,3H)-dione]	106%
Cc1ccc(OCc2ncccc2F)cc1-n1c(=O)[nH]c2cc([N+](=O)[O-])ccc2c1=O [Example 341, 3-(5-((3-fluoropyridin-2-yl)methoxy)-2-methylphenyl)-7-nitroquinazoline-2,4(1H,3H)-dione]	102%
Cc1ccc(OCc2ncccc2F)cc1-n1c(=O)[nH]c2cnc(Cl)cc2c1=O [Example 342, 6-chloro-3-(5-((3-fluoropyridin-2-yl)methoxy)-2-methylphenyl)pyrido[3,4-d]pyrimidine-2,4(1H,3H)-dione]	101%
Cc1ccc(OCc2ncccc2F)cc1-n1c(=O)[nH]c2ncccc2c1=O [Example 343, 3-(5-((3-fluoropyridin-2-yl)methoxy)-2-methylphenyl)pyrido[2,3-d]pyrimidine-2,4(1H,3H)-dione]	101%
O=c1[nH]c2ccccc2c(=O)n1-c1cc(OCc2ncccc2F)ccc1Cl [Example 344, 3-(2-chloro-5-((3-fluoropyridin-2-yl)methoxy)phenyl)quinazoline-2,4(1H,3H)-dione]	114%
O=c1[nH]c2ccccc2c(=O)n1-c1cc(OCc2ncccc2F)ccc1F [Example 345, 3-(2-fluoro-5-((3-fluoropyridin-2-yl)methoxy)phenyl)quinazoline-2,4(1H,3H)-dione]	114%
O=c1[nH]c2ccccc2c(=O)n1-c1cccc(OCc2ncccc2F)c1 [Example 346, 3-(3-((3-fluoropyridin-2-yl)methoxy)phenyl)quinazoline-2,4(1H,3H)-dione]	96%
Cc1ccc(OCc2ncccc2F)cc1-n1c(=O)[nH]c2c(Cl)cccc2c1=O [Example 347, 8-chloro-3-(5-((3-fluoropyridin-2-yl)methoxy)-2-methylphenyl)quinazoline-2,4(1H,3H)-dione]	110%
Cc1ccc(OCc2ncccc2F)cc1-n1c(=O)[nH]c2cc(N)ccc2c1=O [Example 348, 7-amino-3-(5-((3-fluoropyridin-2-yl)methoxy)-2-methylphenyl)quinazoline-2,4(1H,3H)-dione]	101%
Cc1ccc(OCc2ncccc2F)cc1-n1c(=O)[nH]c2cc(OCC3CC3)ccc2c1=O [Example 349, 7-(cyclopropylmethoxy)-3-(5-((3-fluoropyridin-2-yl)methoxy)-2-methylphenyl)quinazoline-2,4(1H,3H)-dione]	105%
Cc1ccc(OCc2ncccc2F)cc1-n1c(=O)[nH]c2cc(NC(=O)C3CC3)ccc2c1=O [Example 350, N-(3-(5-((3-fluoropyridin-2-yl)methoxy)-2-methylphenyl)-2,4-dioxo-1,2,3,4-tetrahydroquinazolin-7-yl)cyclopropanecarboxamide]	101%
Cc1ccc(OCc2ncccc2F)cc1-n1c(=O)[nH]c2cc(Cl)ccc2c1=O [Example 351, 7-chloro-3-(5-((3-fluoropyridin-2-yl)methoxy)-2-methylphenyl)quinazoline-2,4(1H,3H)-dione]	107%
COCCOc1ccc2c(=O)n(-c3cc(OCc4ncccc4F)ccc3C)c(=O)n(CCOC)c2c1 [Example 352, 3-(5-((3-fluoropyridin-2-yl)methoxy)-2-methylphenyl)-7-(2-methoxyethoxy)-1-(2-methoxyethyl)quinazoline-2,4(1H,3H)-dione]	107%
Cc1ccc(OCc2ncccc2F)cc1-n1c(=O)[nH]c2c(OCC3CC3)cccc2c1=O [Example 353, 8-(cyclopropylmethoxy)-3-(5-((3-fluoropyridin-2-yl)methoxy)-2-methylphenyl)quinazoline-2,4(1H,3H)-dione]	106%
COCCOc1cccc2c(=O)n(-c3cc(OCc4ncccc4F)ccc3C)c(=O)[nH]c12 [Example 354, 3-(5-((3-fluoropyridin-2-yl)methoxy)-2-methylphenyl)-8-(2-methoxyethoxy)quinazoline-2,4(1H,3H)-dione]	104%
Cc1ccc(OCc2ncccc2F)cc1-n1c(=O)[nH]c2ccc(Cl)cc2c1=O [Example 355, 6-chloro-3-(5-((3-fluoropyridin-2-yl)methoxy)-2-methylphenyl)quinazoline-2,4(1H,3H)-dione]	94%
COCCOc1ccc2c(=O)n(-c3cc(OCc4ncccc4F)ccc3C)c(=O)[nH]c2c1 [Example 356, 3-(5-((3-fluoropyridin-2-yl)methoxy)-2-methylphenyl)-7-(2-methoxyethoxy)quinazoline-2,4(1H,3H)-dione]	102%
Cc1ccc(OCc2ncccc2F)cc1-n1c(=O)[nH]c2cc(C(F)(F)F)ccc2c1=O [Example 357, 3-(5-((3-fluoropyridin-2-yl)methoxy)-2-methylphenyl)-7-(trifluoromethyl)quinazoline-2,4(1H,3H)-dione]	104%
O=c1[nH]c2cn(CC3CC3)nc2c(=O)n1-c1cc(OCc2ncccc2F)ccc1Br [Example 358, 6-(2-bromo-5-((3-fluoropyridin-2-yl)methoxy)phenyl)-2-(cyclopropylmethyl)-2H-pyrazolo[4,3-d]pyrimidine-5,7(4H,6H)-dione]	101%
Cc1ccc(OCc2ncccc2F)cc1-n1c(=O)[nH]c2cccc(F)c2c1=O [Example 359, 5-fluoro-3-(5-((3-fluoropyridin-2-yl)methoxy)-2-methylphenyl)quinazoline-2,4(1H,3H)-dione]	97%
O=C1Nc2cn(CC3CC3)nc2CN1c1cc(OCc2ncccc2F)ccc1Br [Example 360, 6-(2-bromo-5-((3-fluoropyridin-2-yl)methoxy)phenyl)-2-(cyclopropylmethyl)-2,4,6,7-tetrahydro-5H-pyrazolo[4,3-d]pyrimidin-5-one]	105%
Cc1ccc(OCc2ncccc2F)cc1-n1c(=O)[nH]c2cc(NS(=O)(=O)C3CC3)ccc2c1=O [Example 362, N-(3-(5-((3-fluoropyridin-2-yl)methoxy)-2-methylphenyl)-2,4-dioxo-1,2,3,4-tetrahydroquinazolin-7-yl)cyclopropanesulfonamide]	110%

From patent publication US20150299188A1, “HETEROCYCLIC COMPOUND” (priority 2012, published 2015)
